Test results from ChEMBL document CHEMBL3885881, “DrugMatrix”.

Species on record: Rattus norvegicus
Test: DrugMatrix - Regimen: Daily Repeat
Format: toxicity, organism-based, Sprague-Dawley
Design: regimen Daily Repeat, gender Male, age 6-8 weeks
Conditions: in vivo, po, route oral GAVAGE, vehicle 100 % WATER; for ABSOLUTE BASOPHIL / ABSOLUTE EOSINOPHIL / ABSOLUTE LYMPHOCYTE / ABSOLUTE MONOCYTE / ABSOLUTE SEGMENTED NEUTROPHIL / BASOPHIL / EOSINOPHIL / ERYTHROCYTE COUNT / HEMATOCRIT / HEMOGLOBIN / LEUKOCYTE COUNT / LYMPHOCYTE / MEAN CORPUSCULAR HEMOGLOBIN / MEAN CORPUSCULAR HEMOGLOBIN CONCENTRATION / MEAN CORPUSCULAR VOLUME / MONOCYTE / NEUTROPHIL / NUCLEATED RED BLOOD CELLS / PLATELET COUNT: tissue Blood; for ALANINE AMINOTRANSFERASE / ALBUMIN / ALKALINE PHOSPHATASE / ASPARTATE AMINOTRANSFERASE / BLOOD UREA NITROGEN / CARBON DIOXIDE / CHLORIDE / CHOLESTEROL / CREATINE PHOSPHOKINASE / CREATININE / GLUCOSE / LACTATE DEHYDROGENASE / LIPASE / PHOSPHORUS / POTASSIUM / SODIUM / TOTAL BILIRUBIN / TOTAL PROTEIN / URIC ACID: tissue Plasma
[1] = 175 mg/kg, 120 h, dose level High, time 5 day
[2] = […], 72 h, dose 5.8 mg/Kg, dose level Low, time 3 day
[3] = […], 120 h, dose 5.8 mg/Kg, dose level Low, time 5 day

Question: What does the source list for `O=c1[nH]c(=O)n(C2CCCO2)cc1F` (centres undefined) [TEGAFUR]?
Answer: ABSOLUTE BASOPHIL [1]: 0 CELLS/uL; ABSOLUTE EOSINOPHIL [1]: 47 CELLS/uL; ABSOLUTE LYMPHOCYTE [1]: 11945 CELLS/uL; ABSOLUTE MONOCYTE [1]: 125.33 CELLS/uL; ABSOLUTE SEGMENTED NEUTROPHIL [1]: 416 CELLS/uL; BASOPHIL [1]: 0%; EOSINOPHIL [1]: 0.33%; ERYTHROCYTE COUNT [1]: 6.13 x10E6/uL; HEMATOCRIT [1]: 37.33%; HEMOGLOBIN [1]: 14.9 G/DL; LEUKOCYTE COUNT [1]: 12.53 x10E3/uL; LYMPHOCYTE [1]: 95.33%; MEAN CORPUSCULAR HEMOGLOBIN [1]: 24.33 pg; MEAN CORPUSCULAR HEMOGLOBIN CONCENTRATION [1]: 39.9 G/DL; MEAN CORPUSCULAR VOLUME [1]: 60.9 fL; MONOCYTE [1]: 1%; NEUTROPHIL [1]: 3.33%; NUCLEATED RED BLOOD CELLS [1]: 0 /100WBC; PLATELET COUNT [1]: 1252.33 x10E3/uL; ALANINE AMINOTRANSFERASE [1]: 40 u/L; ALBUMIN [1]: 4.43 G/DL; ALKALINE PHOSPHATASE [1]: 333 u/L; ASPARTATE AMINOTRANSFERASE [1]: 113 u/L; BLOOD UREA NITROGEN [1]: 19.67 mg/dL; CARBON DIOXIDE [1]: 26 mmol/L; CHLORIDE [1]: 106 MEQ/L; CHOLESTEROL [1]: 80.67 mg/dL; CREATINE PHOSPHOKINASE [1]: 419.33 u/L; CREATININE [1]: 0.24 mg/dL; GLUCOSE [1]: 146.33 mg/dL; LACTATE DEHYDROGENASE [1]: 797.67 u/L; LIPASE [1]: 9.33 u/L; PHOSPHORUS [1]: 10.2 mg/dL; POTASSIUM [1]: 5.48 MEQ/L; SODIUM [1]: 149.83 MEQ/L; TOTAL BILIRUBIN [1]: 0.17 mg/dL; TOTAL PROTEIN [1]: 6.13 G/DL; URIC ACID [1]: 1.43 mg/dL; ABSOLUTE BASOPHIL [2]: 0 CELLS/uL; ABSOLUTE EOSINOPHIL [2]: 50 CELLS/uL; ABSOLUTE LYMPHOCYTE [2]: 13948.67 CELLS/uL; ABSOLUTE MONOCYTE [2]: 166.67 CELLS/uL; ABSOLUTE SEGMENTED NEUTROPHIL [2]: 1434.67 CELLS/uL; BASOPHIL [2]: 0%; EOSINOPHIL [2]: 0.33%; ERYTHROCYTE COUNT [2]: 5.51 x10E6/uL; HEMATOCRIT [2]: 34.4%; HEMOGLOBIN [2]: 13.43 G/DL; LEUKOCYTE COUNT [2]: 15.6 x10E3/uL; LYMPHOCYTE [2]: 89.67%; MEAN CORPUSCULAR HEMOGLOBIN [2]: 24.37 pg; MEAN CORPUSCULAR HEMOGLOBIN CONCENTRATION [2]: 39.03 G/DL; MEAN CORPUSCULAR VOLUME [2]: 62.43 fL; MONOCYTE [2]: 1%; NEUTROPHIL [2]: 9%; NUCLEATED RED BLOOD CELLS [2]: 0 /100WBC; PLATELET COUNT [2]: 1387 x10E3/uL; ALANINE AMINOTRANSFERASE [2]: 47.33 u/L; ALBUMIN [2]: 4.23 G/DL; ALKALINE PHOSPHATASE [2]: 325.33 u/L; ASPARTATE AMINOTRANSFERASE [2]: 100.33 u/L; BLOOD UREA NITROGEN [2]: 15.33 mg/dL; CARBON DIOXIDE [2]: 28.33 mmol/L; CHLORIDE [2]: 100.33 MEQ/L; CHOLESTEROL [2]: 86 mg/dL; CREATINE PHOSPHOKINASE [2]: 626 u/L; CREATININE [2]: 0.22 mg/dL; GLUCOSE [2]: 138.67 mg/dL; LACTATE DEHYDROGENASE [2]: 764.67 u/L; LIPASE [2]: 9.67 u/L; PHOSPHORUS [2]: 12.43 mg/dL; POTASSIUM [2]: 6.48 MEQ/L; SODIUM [2]: 143.37 MEQ/L; TOTAL BILIRUBIN [2]: 0.17 mg/dL; TOTAL PROTEIN [2]: 5.97 G/DL; URIC ACID [2]: 1.57 mg/dL; ABSOLUTE BASOPHIL [3]: 0 CELLS/uL; ABSOLUTE EOSINOPHIL [3]: 53.67 CELLS/uL; ABSOLUTE LYMPHOCYTE [3]: 12194.67 CELLS/uL; ABSOLUTE MONOCYTE [3]: 43 CELLS/uL; ABSOLUTE SEGMENTED NEUTROPHIL [3]: 1808.67 CELLS/uL; BASOPHIL [3]: 0%; EOSINOPHIL [3]: 0.33%; ERYTHROCYTE COUNT [3]: 5.38 x10E6/uL; HEMATOCRIT [3]: 32.9%; HEMOGLOBIN [3]: 13.1 G/DL; LEUKOCYTE COUNT [3]: 14.1 x10E3/uL; LYMPHOCYTE [3]: 86.67%; MEAN CORPUSCULAR HEMOGLOBIN [3]: 24.33 pg; MEAN CORPUSCULAR HEMOGLOBIN CONCENTRATION [3]: 39.83 G/DL; MEAN CORPUSCULAR VOLUME [3]: 61.1 fL; MONOCYTE [3]: 0.33%; NEUTROPHIL [3]: 12.67%; NUCLEATED RED BLOOD CELLS [3]: 0.33 /100WBC; PLATELET COUNT [3]: 1303.67 x10E3/uL; ALANINE AMINOTRANSFERASE [3]: 51 u/L; ALBUMIN [3]: 4.13 G/DL; ALKALINE PHOSPHATASE [3]: 305.67 u/L; ASPARTATE AMINOTRANSFERASE [3]: 93.67 u/L; BLOOD UREA NITROGEN [3]: 16 mg/dL; CARBON DIOXIDE [3]: 24.33 mmol/L; CHLORIDE [3]: 102.67 MEQ/L; CHOLESTEROL [3]: 77.33 mg/dL; CREATINE PHOSPHOKINASE [3]: 365 u/L; CREATININE [3]: 0.22 mg/dL; GLUCOSE [3]: 140 mg/dL; LACTATE DEHYDROGENASE [3]: 424.33 u/L; LIPASE [3]: 9.33 u/L; PHOSPHORUS [3]: 11.73 mg/dL; POTASSIUM [3]: 6.27 MEQ/L; SODIUM [3]: 142.73 MEQ/L; TOTAL BILIRUBIN [3]: 0.27 mg/dL; TOTAL PROTEIN [3]: 5.97 G/DL; URIC ACID [3]: 1.6 mg/dL
